Holding throughout (type): biochemical
The target in one assay is T1, Human Calpain 1/NS1 (Homo sapiens, UniProt P07384).
T1 sequence (P07384 1-714): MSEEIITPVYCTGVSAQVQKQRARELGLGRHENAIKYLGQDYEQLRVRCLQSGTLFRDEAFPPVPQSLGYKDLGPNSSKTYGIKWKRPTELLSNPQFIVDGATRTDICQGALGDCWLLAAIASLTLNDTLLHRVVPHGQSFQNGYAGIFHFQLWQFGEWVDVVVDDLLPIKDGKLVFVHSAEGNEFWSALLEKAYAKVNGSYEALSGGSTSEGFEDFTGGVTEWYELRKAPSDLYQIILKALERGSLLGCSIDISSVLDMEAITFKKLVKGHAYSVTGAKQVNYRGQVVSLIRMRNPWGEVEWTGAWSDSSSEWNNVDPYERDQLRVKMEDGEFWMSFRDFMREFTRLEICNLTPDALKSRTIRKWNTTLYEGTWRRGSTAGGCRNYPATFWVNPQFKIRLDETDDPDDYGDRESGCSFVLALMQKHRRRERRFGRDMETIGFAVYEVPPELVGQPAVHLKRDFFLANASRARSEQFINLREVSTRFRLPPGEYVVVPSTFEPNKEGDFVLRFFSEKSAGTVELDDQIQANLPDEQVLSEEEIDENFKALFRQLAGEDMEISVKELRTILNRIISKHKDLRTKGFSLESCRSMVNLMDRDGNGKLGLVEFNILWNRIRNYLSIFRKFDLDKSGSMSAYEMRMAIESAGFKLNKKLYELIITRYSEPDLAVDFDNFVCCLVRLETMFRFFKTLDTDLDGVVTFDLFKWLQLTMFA
T1 sequence (P04632 1-268 partner): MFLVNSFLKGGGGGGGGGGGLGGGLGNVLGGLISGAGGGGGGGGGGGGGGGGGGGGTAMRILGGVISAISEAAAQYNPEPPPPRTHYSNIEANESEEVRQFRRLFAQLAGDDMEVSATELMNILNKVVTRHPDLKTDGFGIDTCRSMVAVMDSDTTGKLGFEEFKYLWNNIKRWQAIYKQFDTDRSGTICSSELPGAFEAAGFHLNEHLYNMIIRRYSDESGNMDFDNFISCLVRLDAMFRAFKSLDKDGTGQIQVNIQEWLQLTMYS
Description: Calpain inhibition continuous fluorescence (FRET) assay, Human Calpain 1/NS1. The settings on record: read-out: Human Calpain 1/NS1 IC50. The protocol:
(§1) Calpain 1, 2, and 9 activity and inhibition thereof was assessed by means of a continuous fluorescence assay. The SensoLyte 520 Calpain substrate (Anaspec Inc) was optimized for detecting calpain activity. This substrate contains an internally quenched 5-FAM/QXL™ 520 FRET pair. Calpains 1, 2, and 9 cleave the FRET substrate into two separate fragments resulting in an increase of 5-FAM fluorescence that is proportional to calpain activity
(§2) Assays were typically setup in black 384-well plates using automated liquid handling as follows. Calpain assay base buffer typically contains 50 mM Tris, pH 7.5, 100 mM NaCl and 1 mM DTT. Inhibitors were serially diluted in DMSO and used to setup 2× mixtures with calpains in the aforementioned buffer. After incubation at ambient temperature (25C), the reaction was initiated by adding a 2× mix of the fluorescent peptide substrate and CaCl2) (required for in-situ calpain activation) in the same buffer. Reaction progress curve data were typically collected for 10 min using excitation/emission wavelengths of 490 nm/520 nm on SpectraMax i3× or the FLIPR-Tetra plate readers (Molecular Devices Inc). Reaction rates were calculated from progress curve slopes typically over 1-5 min. Dose response curves (rate vs. log inhibitor concentration) were typically fit to a 4-parameter logistic function to extract IC50 values.

The target in another assay is T2, Human Calpain 2/NS1 (Homo sapiens, UniProt P17655).
T2 sequence (P17655 1-700): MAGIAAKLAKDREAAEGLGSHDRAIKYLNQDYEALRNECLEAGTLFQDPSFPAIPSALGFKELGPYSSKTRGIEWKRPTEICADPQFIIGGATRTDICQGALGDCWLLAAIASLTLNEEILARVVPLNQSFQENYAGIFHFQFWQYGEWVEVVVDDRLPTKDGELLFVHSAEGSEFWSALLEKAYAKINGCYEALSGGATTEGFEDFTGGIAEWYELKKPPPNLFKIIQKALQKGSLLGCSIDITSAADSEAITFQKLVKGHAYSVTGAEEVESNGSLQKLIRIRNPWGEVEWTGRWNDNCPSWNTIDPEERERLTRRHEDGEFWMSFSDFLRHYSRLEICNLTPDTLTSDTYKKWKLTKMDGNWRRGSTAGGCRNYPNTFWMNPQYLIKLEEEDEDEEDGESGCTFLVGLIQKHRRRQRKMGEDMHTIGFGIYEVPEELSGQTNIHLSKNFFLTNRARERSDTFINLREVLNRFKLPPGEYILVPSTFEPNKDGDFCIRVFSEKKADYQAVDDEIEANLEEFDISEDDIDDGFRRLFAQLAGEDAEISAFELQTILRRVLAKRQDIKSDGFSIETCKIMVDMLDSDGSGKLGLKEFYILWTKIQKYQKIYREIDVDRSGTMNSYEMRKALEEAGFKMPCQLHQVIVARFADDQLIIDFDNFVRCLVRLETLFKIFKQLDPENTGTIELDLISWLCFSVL
T2 sequence (P04632 1-268 partner): T1 sequence (P04632 1-268 partner)
Put plainly: Calpain inhibition continuous fluorescence (FRET) assay, Human Calpain 2/NS1. Particulars: read-out: Human Calpain 2/NS1 IC50. The protocol: as §1, §2

Another assay concerns the target T3, Human Calpain 9/NS1 (Homo sapiens, UniProt O14815).
T3 sequence (O14815 1-690): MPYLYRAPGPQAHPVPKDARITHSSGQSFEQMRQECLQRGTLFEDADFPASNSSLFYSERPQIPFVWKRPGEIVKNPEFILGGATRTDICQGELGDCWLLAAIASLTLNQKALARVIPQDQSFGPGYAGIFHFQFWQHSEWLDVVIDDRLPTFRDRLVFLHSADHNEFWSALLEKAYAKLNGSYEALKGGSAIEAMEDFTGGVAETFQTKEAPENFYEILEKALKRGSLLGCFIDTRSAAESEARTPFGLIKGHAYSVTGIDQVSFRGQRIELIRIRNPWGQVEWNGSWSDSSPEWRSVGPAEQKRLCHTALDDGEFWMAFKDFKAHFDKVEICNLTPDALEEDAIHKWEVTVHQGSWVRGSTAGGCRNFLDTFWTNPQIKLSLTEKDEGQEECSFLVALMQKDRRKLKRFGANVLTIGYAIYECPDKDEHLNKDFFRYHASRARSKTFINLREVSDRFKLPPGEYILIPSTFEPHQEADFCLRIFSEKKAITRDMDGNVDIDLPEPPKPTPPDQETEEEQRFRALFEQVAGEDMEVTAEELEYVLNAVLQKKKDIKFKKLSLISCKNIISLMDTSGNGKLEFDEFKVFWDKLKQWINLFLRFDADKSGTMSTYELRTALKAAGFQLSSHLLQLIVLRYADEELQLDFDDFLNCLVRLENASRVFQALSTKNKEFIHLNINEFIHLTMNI
T3 sequence (P04632 1-268 partner): T1 sequence (P04632 1-268 partner)
Description: Calpain inhibition continuous fluorescence (FRET) assay, Human Calpain 9/NS1. Particulars: read-out: Human Calpain 9/NS1 IC50. The protocol: as §1, §2

The values below come from US11339130B1 (Blade Therapeutics, Inc., priority 2016, dated 2022).

Where two headings read alike, the source gives them in different places.

With `O=C[C@H](Cc1ccccc1)NC(=O)c1cncn1-c1ccccc1` [Compound 1, (S)—N-(1-oxo-3-phenylpropan-2-yl)-1-phenyl-1H-imidazole-5-carboxamide], the IC50 at Human Calpain 1/NS1 (Column A), at Human Calpain 2/NS1 (Column B) and on Human Calpain 9/NS1 (Column C) was < 3 µM in each case.

Consider `Cn1ncc(C(=O)N[C@@H](Cc2ccccc2)C(=O)C(N)=O)c1-c1ccncc1` [Compound 165, (S)—N-(4-amino-3,4-dioxo-1-phenylbutan-2-yl)-1-methyl-5-(pyridin-4-yl)-1H-pyrazole-4-carboxamide], for which the IC50 at Human Calpain 1/NS1 (Column A), on Human Calpain 2/NS1 (Column B) and at Human Calpain 9/NS1 (Column C) was < 3 µM throughout.

Consider `NC(=O)C(=O)[C@H](Cc1ccccc1)NC(=O)c1[nH]cnc1-c1ccccc1` [Compound 48, (S)—N-(4-amino-3,4-dioxo-1-phenylbutan-2-yl)-4-phenyl-1H-imidazole-5-carboxamide], for which the IC50 on Human Calpain 1/NS1 (Column A), on Human Calpain 2/NS1 (Column B) and at Human Calpain 9/NS1 (Column C) was 3 to 10 µM each time.

Take `Cn1cc(C(=O)NC(Cc2ccccc2)C(=O)C(N)=O)c(C2CCOCC2)n1` (stereo not drawn) [Compound 617, N-(4-amino-3,4-dioxo-1-phenylbutan-2-yl)-1-methyl-3-(tetrahydro-2H-pyran-4-yl)-1H-pyrazole-4-carboxamide]: the IC50 was 3 to 10 µM on Human Calpain 1/NS1, < 3 µM at Human Calpain 2/NS1 and < 3 µM on Human Calpain 9/NS1.

Consider `Cn1cc(C(=O)NC(Cc2cccc(C(F)(F)F)c2)C(=O)C(N)=O)c(-c2ccccc2F)n1` (stereo not drawn) [Compound 623, N-(4-amino-3,4-dioxo-1-(3-(trifluoromethyl)phenyl)butan-2-yl)-3-(2-fluorophenyl)-1-methy 1-1H-pyrazole-4-carboxamide], for which the IC50 at Human Calpain 1/NS1, on Human Calpain 2/NS1 and at Human Calpain 9/NS1 was < 3 µM each time.

For the compound `Cn1cc(-c2ccccc2)c(C(=O)N[C@@H](Cc2ccccc2)C(=O)C(N)=O)n1` [Compound 241, (S)—N-(4-amino-3,4-dioxo-1-phenylbutan-2-yl)-1-methyl-4-phenyl-1H-pyrazole-3-carboxamide], the IC50 at Human Calpain 1/NS1 (Column A), at Human Calpain 2/NS1 (Column B) and on Human Calpain 9/NS1 (Column C) was < 3 µM each time.

As to `Cn1cc(C(=O)NC(Cc2ccccc2)C(=O)C(N)=O)c(-c2cccs2)n1` (stereo not drawn) [Compound 615, N-(4-amino-3,4-dioxo-1-phenylbutan-2-yl)-1-methyl-3-(thiophen-2-yl)-1H-pyrazole-4-carboxamide], the IC50 at Human Calpain 1/NS1, at Human Calpain 2/NS1 and on Human Calpain 9/NS1 was < 3 µM each time.

Regarding `Cc1cc(C(=O)N[C@H](C=O)Cc2ccccc2)nn1-c1ccccc1` [Compound 5], the values for the IC50 on Human Calpain 1/NS1 (Column A), on Human Calpain 2/NS1 (Column B) and at Human Calpain 9/NS1 (Column C) were > 10 µM, 3 to 10 µM and 3 to 10 µM, respectively.

In the case of `Cn1cc(C(=O)NC(Cc2ccccc2)C(=O)C(N)=O)c(-c2coc3ccccc23)n1` (stereo not drawn) [Compound 628, N-(4-amino-3,4-dioxo-1-phenylbutan-2-yl)-3-(benzofuran-3-yl)-1-methyl-1H-pyrazole-4-carboxamide], the IC50 at Human Calpain 1/NS1, at Human Calpain 2/NS1 and on Human Calpain 9/NS1 was < 3 µM each time.

In the case of `CCCC[C@H](NC(=O)c1c(C)noc1-c1ccccc1)C(=O)C(N)=O` [Compound 62, (S)—N-(1-amino-1,2-dioxoheptan-3-yl)-3-methyl-5-phenylisoxazole-4-carboxamide], the IC50 on Human Calpain 1/NS1 (Column A), at Human Calpain 2/NS1 (Column B) and at Human Calpain 9/NS1 (Column C) was < 3 µM each time.

As for `Cc1cc(C(=O)N[C@@H](Cc2ccccc2)C(=O)C(=O)NC2CC2)n(-c2ccc(C(F)(F)F)cn2)n1` [Compound 122, (S)—N-(4-(cyclopropylamino)-3,4-dioxo-1-phenylbutan-2-yl)-3-methyl-1-(5-(trifluoromethyl)pyridin-2-yl)-1H-pyrazole-5-carboxamide], the IC50 on Human Calpain 1/NS1 (Column A), on Human Calpain 2/NS1 (Column B) and at Human Calpain 9/NS1 (Column C) was < 3 µM in each case.

Regarding `Cc1nc(-c2cccc3c2OC(F)(F)O3)c(C(=O)NC(Cc2ccccc2)C(=O)C(N)=O)o1` (stereo not drawn) [Compound 618, N-(4-amino-3,4-dioxo-1-phenylbutan-2-yl)-4-(2,2-difluorobenzo[d][1,3]dioxol-4-yl)-2-methyloxazole-5-carboxamide], the IC50 at Human Calpain 1/NS1, at Human Calpain 2/NS1 and at Human Calpain 9/NS1 was < 3 µM in each case.

For the compound `NC(=O)C(=O)[C@H](Cc1ccccc1)NC(=O)c1cnnn1-c1ccccc1` [Compound 263, (S)—N-(4-amino-3,4-dioxo-1-phenylbutan-2-yl)-1-phenyl-1H-1,2,3-triazole-5-carboxamide], the IC50 at Human Calpain 1/NS1 (Column A), on Human Calpain 2/NS1 (Column B) and at Human Calpain 9/NS1 (Column C) was < 3 µM each time.

Regarding “(S)—N-(4-amino-1-(3,5-dimethylphenyl)-3,4-dioxobutan-2-yl)-3-methyl-5-phenylisoxazole-4-carboxamide [Compound 98]”, the IC50 on Human Calpain 1/NS1 (Column A), on Human Calpain 2/NS1 (Column B) and on Human Calpain 9/NS1 (Column C) was < 3 µM in each case.

Consider `NC(=O)C(=O)C(Cc1ccccc1)NC(=O)c1c(Cl)cnn1-c1ccccc1` (stereo not drawn) [Compound 280, N-(4-amino-3,4-dioxo-1-phenylbutan-2-yl)-4-chloro-1-phenyl-1H-pyrazole-5-carboxamide], for which the IC50 at Human Calpain 1/NS1 (Column A), on Human Calpain 2/NS1 (Column B) and on Human Calpain 9/NS1 (Column C) was < 3 µM throughout.

For the compound `O=C[C@H](Cc1ccccc1)NC(=O)c1cncn1-c1n[nH]c2ccccc12` [Compound 102, (S)-1-(1H-indazol-3-yl)-N-(1-oxo-3-phenylpropan-2-yl)-1H-imidazole-5-carboxamide], the IC50 at Human Calpain 1/NS1 (Column A), at Human Calpain 2/NS1 (Column B) and on Human Calpain 9/NS1 (Column C) was < 3 µM in each case.
